Experimental findings from patent publication US3974140A, “Ureidoacetamido-penicillins” (Bayer Aktiengesellschaft, priority 1970, dated 1976) are described below.

In one assay the test system is E. coli A 261. The assay is described as follows: MIC, liquid medium test tube series dilution test. In kind it is cell-based. Particulars: E. coli A 261, 24 hours, 37°C. The method, boiled down: (§1)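 Values are minimum inhibitory concentrations in units/ml, taken as the first clear (non-turbid) tube of a dilution series. Tubes of complete liquid medium were incubated 24 h at 37°C.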

Another assay deals with E. coli 14. The assay can be described thus: MIC, liquid medium test tube series dilution test. In kind it is cell-based. Particulars: E. coli 14, 24 hours, 37°C. In a few lines: as §1
The test system of another assay is E. coli 183/58. The assay is described as follows: MIC, liquid medium test tube series dilution test. In kind it is cell-based. Particulars: E. coli 183/58, 24 hours, 37°C. The method, boiled down:
as §1

The next assay concerns Klebsiella 63. The assay can be described thus: MIC, liquid medium test tube series dilution test. In kind it is cell-based. As to conditions: Klebsiella 63, 24 hours, 37°C. In a few lines:
as §1

For assay [1], the system named is Streptoc. faec. ATCC 9790. The assay is described as follows: MIC, liquid medium test tube series dilution test. In kind it is cell-based. Particulars: Strep. faec. (Enterococcus) ATCC 9790, 24 hours, 37°C. The method, boiled down:
as §1

The test system of the next assay is E. coli. The assay is described as follows: MIC, liquid medium test tube series dilution test. In kind it is cell-based. Particulars: strain not given, 24 hours. In a few lines:
as §1

A further assay has as its system Klebsiella K 10. The assay can be described thus: MIC, liquid medium test tube series dilution test. Format: cell-based. As to conditions: Klebsiella K 10, 24 hours, 37°C. In a few lines: as §1
Another assay relates to E. coli C 165. The assay can be described thus: MIC, liquid medium test tube series dilution test. In kind it is cell-based. As to conditions: E. coli C 165, 24 hours, 37°C. In a few lines: as §1
Assay [2] has as its system Psdm. aerug. Walter. The assay can be described thus: MIC, liquid medium test tube series dilution test. As to conditions: 24 hours, 37°C. In kind it is cell-based, Pseudomonas aerug. The method, boiled down:
as §1

For the next assay, the system named is Psdm. aerug. Bonn. The assay is described as follows: MIC, liquid medium test tube series dilution test. As to conditions: 24 hours, 37°C. Format: cell-based, Pseudomonas aerug. In a few lines:
as §1

Assay [3] deals with Staph. aureus 133. The assay can be described thus: Surviving mice after intraperitoneal infection and subcutaneous therapy. In kind it is in vivo, white mice, CF1 strain. As to conditions: 2 × 200 units/mouse s.c. As to the method: (§2) The experiments on animals (see Table 3) were carried out with white mice of the CF1 strain. The infection took place intraperitoneally with the particular bacterium indicated.

In assay [4] the test system is Staph. aureus 133. The assay can be described thus: MIC, liquid medium test tube series dilution test. In kind it is cell-based, Staphylococcus aureus. Particulars: Staph. aureus 133, 24 hours, 37°C. The method, boiled down:
as §1

A further assay concerns Proteus vulg. 1017. The assay is described as follows: MIC, liquid medium test tube series dilution test. In kind it is cell-based, Proteus vulgaris. As to conditions: Proteus vulg. 1017, 24 hours, 37°C. The method, boiled down: as §1
In a further assay the test system is Proteus vulg. 3400. The assay is described as follows: MIC, liquid medium test tube series dilution test. Format: cell-based, Proteus vulgaris. As to conditions: Proteus vulg. 3400, 24 hours, 37°C. In a few lines:
as §1

For assay [5], the system named is Psdm. aerug. Walter. The assay is described as follows: Surviving mice after intraperitoneal infection and subcutaneous therapy. In kind it is in vivo, white mice, CF1 strain. Particulars: compared with carbenicillin. The protocol: as §2
Another assay deals with Staph. aureus 1777 E. The assay can be described thus: MIC, liquid medium test tube series dilution test. Format: cell-based, Staphylococcus aureus. As to conditions: 24 hours, 37°C. The method, boiled down: as §1

SMILES strings stand for the structures.

In the case of `Cc1ccc(C(=O)N(C)C(=O)N[C@@H](C(=O)N[C@@H]2C(=O)N3[C@@H]2SC(C)(C)[C@@H]3C(=O)O)c2ccccc2)cc1` [Example 73, Sodium D(-)-α-(3-p-methylbenzoyl-3-methyl-ureido)-benzylpenicillin], the MIC against E. coli A 261 is on record as 200-400 units/ml; against E. coli 14, 3.12 units/ml; against E. coli 183/58 it was 1.56 units/ml; with Klebsiella 63 it was 12.5-25 units/ml; in assay [1] it was 50-100 units/ml; against Klebsiella K 10, 25-50 units/ml. In addition, the MIC is 6.25 units/ml against E. coli C 165; ~ 50 units/ml against Psdm. aerug. Walter [2]; 12.5 units/ml against Psdm. aerug. Bonn; 0.78 units/ml in the assay with Staph. aureus 133 [4]; 6.25 units/ml with Proteus vulg. 1017; 12.5 units/ml against Proteus vulg. 3400. The “Effectiveness (MIC)” value in the assay on E. coli is 312 units/ml. In addition, the “Number of surviving mice” value was determined as 80% in the assay with Staph. aureus 133 [3] (1 day), 70% in the assay with Staph. aureus 133 [3] (2 days), 50% with Staph. aureus 133 [3] (3 days) and 40% in the assay on Staph. aureus 133 [3] (5 days).
As for `CN(C(=O)N[C@@H](C(=O)N[C@@H]1C(=O)N2[C@@H]1SC(C)(C)[C@@H]2C(=O)O)c1ccccc1)C(=O)c1ccccc1Cl` [Example 107], the MIC is recorded as below 0.8 units/ml with E. coli 14; below 0.8 units/ml in the assay on E. coli 183/58; 4-20 units/ml against Klebsiella 63; 4-20 units/ml in [1]; ~ 4 units/ml against Klebsiella K 10; below 0.8 units/ml against E. coli C 165. The MIC in the assay with Psdm. aerug. Walter [2] was 0.8-4 units/ml; with Psdm. aerug. Bonn, 0.8-4 units/ml; with Staph. aureus 1777 E, 20-100 units/ml; against Staph. aureus 133 [4], below 0.8 units/ml; in the assay on Proteus vulg. 1017, 0.8-4 units/ml; against Proteus vulg. 3400, 0.8-4 units/ml. Moreover, the “Effectiveness in animal experiments against Pseudomonas aerug. Walter” value with Psdm. aerug. Walter [5] is “better than carbenicillin”.
